Source: publication PMC10818749, “Toxicity Studies of Cardiac-Targeting Peptide Reveal a Robust Safety Profile” (Pharmaceutics, 2024)
Ends that are not written are not given here.

What was measured:
HEK-Kir2.1 = target: T1, HEK-Kir2.1 (Homo sapiens, UniProt P63252); type: cell-based; details: CTP 0.1 to 30 µM; HEK cells; step to -120mV; 0.1% Pluronic F-68
T1 construct: host or cells: HEK

OPRM1 = OPRM1 (Homo sapiens, UniProt P35372); assay: OPRM1 GPCR cAMP modulation assay; type: cell-based
Method: GPCR cAMP Modulation Assays: cAMP Hunter cell lines were grown, plated, and subjected to Eurofins’ DiscoverX HitHunter cAMP XS+ assay. Gs agonist activity, Gi agonist activity, and antagonist activity-induced assays were read using chemiluminescent signal detection. The percentage of activity was calculated for Gs and Gi agonist assays, and the percentage of inhibition was calculated for Gs antagonist assays. […]
cAMP Second ary Messenger Assay pound results in the release of calcium from intracellular stores and DiscoverX has developed a panel of cell lines stably expressing non- an increase in dye fluorescence that is measured in real-time. tagged GPCRs that endogenously signal through cAMP. […]
The enzyme is split into two complementary portions: Enzyme Ac-ceptor (EA) and Enzyme Donor (ED). […] Active enzyme can then convert a chemilumines-cent substrate, generating an output signal detectable on a standard The NHR is tagged with the ProLink™ (PK) component of our EFC microplate reader. assay system, and the SRCP domain is fused to the Enzyme Ac-ceptor component (EA) expressed in the nucleus. […]

HEK-Cav1.2 = HEK-Cav1.2 (Homo sapiens, UniProt Q13936); details: CTP 0.1 to 30 µM; HEK cells; -100mV to +20mV; 0.1% Pluronic F-68
HEK-Cav1.2, sequence (Q13936 whole entry): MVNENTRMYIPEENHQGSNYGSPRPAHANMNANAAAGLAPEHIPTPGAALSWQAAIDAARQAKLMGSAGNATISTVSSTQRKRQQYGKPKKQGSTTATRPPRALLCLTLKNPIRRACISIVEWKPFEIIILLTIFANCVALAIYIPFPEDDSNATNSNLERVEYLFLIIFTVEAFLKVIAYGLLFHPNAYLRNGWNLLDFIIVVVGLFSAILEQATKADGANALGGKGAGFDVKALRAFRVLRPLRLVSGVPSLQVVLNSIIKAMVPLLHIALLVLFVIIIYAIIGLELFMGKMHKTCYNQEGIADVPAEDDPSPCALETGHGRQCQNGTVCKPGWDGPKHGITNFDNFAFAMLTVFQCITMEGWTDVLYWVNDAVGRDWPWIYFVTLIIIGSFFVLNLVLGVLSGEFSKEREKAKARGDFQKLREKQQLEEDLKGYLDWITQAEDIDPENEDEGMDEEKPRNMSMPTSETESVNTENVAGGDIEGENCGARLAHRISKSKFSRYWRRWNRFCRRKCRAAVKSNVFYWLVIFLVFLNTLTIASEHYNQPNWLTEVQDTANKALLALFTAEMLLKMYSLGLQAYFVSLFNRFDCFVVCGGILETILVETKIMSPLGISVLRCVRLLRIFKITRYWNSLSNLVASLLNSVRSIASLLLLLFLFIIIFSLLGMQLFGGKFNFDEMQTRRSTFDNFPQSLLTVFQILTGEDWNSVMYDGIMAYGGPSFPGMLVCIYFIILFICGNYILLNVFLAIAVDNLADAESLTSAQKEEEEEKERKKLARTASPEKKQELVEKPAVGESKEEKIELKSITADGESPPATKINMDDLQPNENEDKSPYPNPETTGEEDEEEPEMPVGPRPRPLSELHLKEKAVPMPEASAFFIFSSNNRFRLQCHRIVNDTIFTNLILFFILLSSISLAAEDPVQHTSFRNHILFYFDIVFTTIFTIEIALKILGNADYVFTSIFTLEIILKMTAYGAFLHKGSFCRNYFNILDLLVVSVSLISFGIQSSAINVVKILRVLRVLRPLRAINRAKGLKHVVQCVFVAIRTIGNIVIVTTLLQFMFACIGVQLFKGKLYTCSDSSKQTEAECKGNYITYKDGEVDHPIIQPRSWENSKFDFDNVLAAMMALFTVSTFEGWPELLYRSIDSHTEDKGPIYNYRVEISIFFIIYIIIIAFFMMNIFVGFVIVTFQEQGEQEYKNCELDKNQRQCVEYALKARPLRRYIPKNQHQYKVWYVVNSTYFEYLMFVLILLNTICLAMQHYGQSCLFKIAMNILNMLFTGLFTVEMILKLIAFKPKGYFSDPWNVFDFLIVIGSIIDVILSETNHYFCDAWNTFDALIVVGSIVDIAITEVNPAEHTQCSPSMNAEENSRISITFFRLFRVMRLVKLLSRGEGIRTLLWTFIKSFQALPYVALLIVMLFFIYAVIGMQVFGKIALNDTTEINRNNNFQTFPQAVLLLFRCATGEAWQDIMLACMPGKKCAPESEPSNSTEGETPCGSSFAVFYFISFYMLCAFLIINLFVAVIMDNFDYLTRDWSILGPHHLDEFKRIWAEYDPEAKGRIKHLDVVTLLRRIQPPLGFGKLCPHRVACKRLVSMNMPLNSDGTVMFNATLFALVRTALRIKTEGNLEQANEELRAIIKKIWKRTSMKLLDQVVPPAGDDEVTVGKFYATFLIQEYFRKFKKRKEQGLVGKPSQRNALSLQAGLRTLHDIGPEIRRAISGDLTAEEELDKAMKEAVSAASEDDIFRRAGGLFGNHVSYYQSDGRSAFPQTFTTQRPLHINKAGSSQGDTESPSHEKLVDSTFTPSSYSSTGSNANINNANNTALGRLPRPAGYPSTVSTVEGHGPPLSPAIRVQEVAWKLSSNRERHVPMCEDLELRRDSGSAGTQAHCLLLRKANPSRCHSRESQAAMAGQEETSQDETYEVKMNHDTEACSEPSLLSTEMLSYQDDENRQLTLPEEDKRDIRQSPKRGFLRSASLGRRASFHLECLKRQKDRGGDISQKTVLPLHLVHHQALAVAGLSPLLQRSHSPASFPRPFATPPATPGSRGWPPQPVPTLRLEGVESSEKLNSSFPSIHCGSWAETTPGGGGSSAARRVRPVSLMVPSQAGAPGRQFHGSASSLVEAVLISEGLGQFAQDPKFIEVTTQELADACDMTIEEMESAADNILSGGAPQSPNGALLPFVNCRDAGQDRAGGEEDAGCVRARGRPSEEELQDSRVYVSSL
HEK-Cav1.2, sequence (Q08289 whole entry partner): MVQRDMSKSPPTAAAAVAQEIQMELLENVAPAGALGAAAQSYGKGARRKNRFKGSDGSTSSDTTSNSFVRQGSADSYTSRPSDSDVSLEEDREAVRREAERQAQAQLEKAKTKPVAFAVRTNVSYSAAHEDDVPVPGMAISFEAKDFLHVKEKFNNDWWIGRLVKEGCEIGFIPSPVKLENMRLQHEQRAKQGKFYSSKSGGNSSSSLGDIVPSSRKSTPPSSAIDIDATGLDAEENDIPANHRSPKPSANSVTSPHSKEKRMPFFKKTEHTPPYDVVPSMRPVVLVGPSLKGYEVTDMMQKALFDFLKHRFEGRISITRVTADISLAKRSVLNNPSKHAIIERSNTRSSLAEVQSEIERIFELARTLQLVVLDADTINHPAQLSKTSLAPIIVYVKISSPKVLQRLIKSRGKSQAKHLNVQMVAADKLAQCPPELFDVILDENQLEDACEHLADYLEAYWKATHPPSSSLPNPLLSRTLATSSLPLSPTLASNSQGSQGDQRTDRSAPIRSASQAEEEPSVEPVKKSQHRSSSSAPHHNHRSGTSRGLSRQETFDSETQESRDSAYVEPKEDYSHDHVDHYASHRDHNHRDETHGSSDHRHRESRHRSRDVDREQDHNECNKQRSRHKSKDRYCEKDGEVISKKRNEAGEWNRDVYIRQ
HEK-Cav1.2, sequence (P54289 25-946 partner limits assumed): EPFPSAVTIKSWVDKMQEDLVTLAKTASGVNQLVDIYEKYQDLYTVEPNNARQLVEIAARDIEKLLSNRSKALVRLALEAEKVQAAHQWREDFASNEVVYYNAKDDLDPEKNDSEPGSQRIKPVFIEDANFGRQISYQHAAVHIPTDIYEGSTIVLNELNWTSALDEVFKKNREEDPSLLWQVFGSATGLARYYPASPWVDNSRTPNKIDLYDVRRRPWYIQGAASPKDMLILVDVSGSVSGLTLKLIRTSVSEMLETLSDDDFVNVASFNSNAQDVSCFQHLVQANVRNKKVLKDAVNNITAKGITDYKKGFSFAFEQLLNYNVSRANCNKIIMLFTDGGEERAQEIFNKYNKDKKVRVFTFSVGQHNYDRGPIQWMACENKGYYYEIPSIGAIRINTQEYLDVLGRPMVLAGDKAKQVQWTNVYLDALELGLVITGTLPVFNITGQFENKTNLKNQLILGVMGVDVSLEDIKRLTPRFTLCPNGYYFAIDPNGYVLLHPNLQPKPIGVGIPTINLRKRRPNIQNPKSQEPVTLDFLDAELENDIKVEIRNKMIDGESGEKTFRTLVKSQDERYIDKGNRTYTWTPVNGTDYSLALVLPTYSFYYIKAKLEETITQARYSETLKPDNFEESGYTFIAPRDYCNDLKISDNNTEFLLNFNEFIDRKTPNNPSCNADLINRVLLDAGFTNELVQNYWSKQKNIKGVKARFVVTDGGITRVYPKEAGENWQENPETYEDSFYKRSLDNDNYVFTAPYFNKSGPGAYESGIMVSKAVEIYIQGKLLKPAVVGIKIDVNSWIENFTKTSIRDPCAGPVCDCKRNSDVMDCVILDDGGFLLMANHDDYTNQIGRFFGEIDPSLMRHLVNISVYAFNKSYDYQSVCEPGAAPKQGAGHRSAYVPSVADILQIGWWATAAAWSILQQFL
HEK-Cav1.2, sequence (P54289 947-1103 partner limits assumed): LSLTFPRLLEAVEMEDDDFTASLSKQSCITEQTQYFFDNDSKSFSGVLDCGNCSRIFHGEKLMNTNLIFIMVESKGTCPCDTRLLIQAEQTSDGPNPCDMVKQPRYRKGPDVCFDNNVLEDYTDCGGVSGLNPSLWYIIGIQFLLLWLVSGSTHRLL

cardiomyocytes = details: cited from earlier work
Source text: Targeted delivery of therapeutics specifically to cardiomyocytes would open up new frontiers for common conditions like heart failure. […] CTP has been used to deliver imaging agents, small drug molecules, photosensitizing nanoparticles, exosomes, and even miRNA to cardiomyocytes. As a natural extension to the development of CTP as a clinically viable ... || Advances in the development of novel technologies in pharmaceutics today necessitate the development of safe and effective targeted delivery methods for cargoes such as nanoparticles, siRNA, drugs, and more. Cell-penetrating peptides (CPPs), which are small, positively charged peptides capable of crossing the cell membrane barrier, provide a promising method for intracellular delivery, which is highly efficient and minimally cytotoxic. Tat (HIV trans-activator of transcription) was the first CPP to be discovered to enter the cell and induce the expression of viral genes ... || Heart disease and cardiac illness continue to be a leading cause of death in the US [16], and, as such, novel treatments for increasingly prevalent conditions such as heart failure and atrial fibrillation are sorely needed.

HEK-Nav1.5 (Peak) = HEK-Nav1.5 (Peak) (Homo sapiens, UniProt Q14524); assay: hNav1.5 (Peak) Sodium Channel Assay - Qube APC; details: CTP 0.1 to 30 µM; HEK cells; peak current, step to -15mV; 0.1% Pluronic F-68

T1 sequence (P63252 whole entry): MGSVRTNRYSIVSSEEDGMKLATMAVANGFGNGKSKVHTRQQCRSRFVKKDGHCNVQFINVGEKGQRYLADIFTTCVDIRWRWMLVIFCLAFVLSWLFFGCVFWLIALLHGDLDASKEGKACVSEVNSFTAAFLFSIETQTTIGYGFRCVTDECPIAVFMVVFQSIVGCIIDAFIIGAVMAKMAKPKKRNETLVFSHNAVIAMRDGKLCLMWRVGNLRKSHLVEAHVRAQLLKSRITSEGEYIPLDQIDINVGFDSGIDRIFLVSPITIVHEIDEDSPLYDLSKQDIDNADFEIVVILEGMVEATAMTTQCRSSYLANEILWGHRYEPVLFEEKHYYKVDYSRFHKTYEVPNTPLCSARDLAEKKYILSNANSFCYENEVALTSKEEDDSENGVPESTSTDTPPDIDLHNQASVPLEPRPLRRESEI
OPRM1, sequence (P35372 whole entry): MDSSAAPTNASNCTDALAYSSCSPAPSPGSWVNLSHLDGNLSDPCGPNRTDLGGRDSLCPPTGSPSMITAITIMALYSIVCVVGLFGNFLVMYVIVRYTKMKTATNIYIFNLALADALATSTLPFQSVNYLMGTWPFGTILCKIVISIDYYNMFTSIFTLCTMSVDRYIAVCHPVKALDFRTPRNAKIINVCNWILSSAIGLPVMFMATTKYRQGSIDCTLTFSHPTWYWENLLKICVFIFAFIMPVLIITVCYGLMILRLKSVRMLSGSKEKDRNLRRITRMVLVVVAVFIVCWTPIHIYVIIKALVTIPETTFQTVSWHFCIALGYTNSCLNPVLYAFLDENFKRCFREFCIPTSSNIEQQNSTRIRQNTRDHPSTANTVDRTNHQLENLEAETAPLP

Which results are given for APWHLSSQYSRT [CTP]?
Estimated IC50 (HEK-Kir2.1): N/C (Not calculable, inhibition >25% was not observed.); antagonist action (OPRM1): no antagonist action; Estimated IC50 (HEK-Cav1.2): N/C (Not calculable, inhibition >25% was not observed.); cell specificity in the heart (cardiomyocytes; fibroblasts, endothelial cells, myofibroblasts spared, ref [19]): targets cardiomyocytes specifically while sparing the other cells; time to targeting of cardiomyocytes after intravenous injection (cardiomyocytes; intravenous injection, "in as little as", ref our prior work): ~5 min; time to transduction of cardiomyocytes after intravenous injection (cardiomyocytes; peripheral intravenous injection, "in as little as", ref [6],[15]): ~15 min; blood–brain barrier crossing (cardiomyocytes; ref [15]): does not cross the blood–brain barrier; uptake by other tissues (cardiomyocytes; ref [15]): not taken up by the lungs, spleen, or other muscle subtypes; Estimated IC50 (HEK-Nav1.5 (Peak)): N/C (Not calculable, inhibition >25% was not observed.)
